System: 186277-243-T-J2-PDC complex spheroid viability
Assay: Anticancer human tumor 186277-243-T-J2-PDC patient-derived colon adenocarcinoma cell line growth inhibition [GQUAD]
Conditions: for IC50: curve of first compound; for viability, T/C: stronger effect = lower value
Procedure, shortened: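 Multi-cell-type spheroids of tumor cells with HUVEC and mesenchymal stem cells, treated with drug combinations. Concentrations descend in half-log steps from near clinical Cmax, or from 10 microM where Cmax is unknown; viability read-out.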

[1] = second compound 0.0316 µM, first compound 0.0316 µM
[2] = second compound 0.0316 µM, first compound 0.1 µM
[3] = second compound 0.0316 µM, first compound 0.316 µM
[4] = second compound 0.0316 µM, first compound 1 µM
[5] = second compound 0.0316 µM, first compound 3.16 µM
[6] = second compound 0.0316 µM, first compound 10 µM
[7] = second compound 0.1 µM, first compound 0.0316 µM
[8] = second compound 0.1 µM, first compound 0.1 µM
[9] = second compound 0.1 µM, first compound 0.316 µM
[10] = second compound 0.1 µM, first compound 1 µM
[11] = second compound 0.1 µM, first compound 3.16 µM
[12] = second compound 0.1 µM, first compound 10 µM
[13] = second compound 0.316 µM, first compound 0.0316 µM
[14] = second compound 0.316 µM, first compound 0.1 µM
[15] = second compound 0.316 µM, first compound 0.316 µM
[16] = second compound 0.316 µM, first compound 1 µM
[17] = second compound 0.316 µM, first compound 3.16 µM
[18] = second compound 0.316 µM, first compound 10 µM
[19] = second compound 1 µM, first compound 0.0316 µM
[20] = second compound 1 µM, first compound 0.1 µM
[21] = second compound 1 µM, first compound 0.316 µM
[22] = second compound 1 µM, first compound 1 µM
[23] = second compound 1 µM, first compound 3.16 µM
[24] = second compound 1 µM, first compound 10 µM
[25] = second compound 3.16 µM, first compound 0.0316 µM
[26] = second compound 3.16 µM, first compound 0.1 µM
[27] = second compound 3.16 µM, first compound 0.316 µM
[28] = second compound 3.16 µM, first compound 1 µM
[29] = second compound 3.16 µM, first compound 3.16 µM
[30] = second compound 3.16 µM, first compound 10 µM
[31] = second compound 10 µM, first compound 0.0316 µM
[32] = second compound 10 µM, first compound 0.1 µM
[33] = second compound 10 µM, first compound 0.316 µM
[34] = second compound 10 µM, first compound 1 µM
[35] = second compound 10 µM, first compound 3.16 µM
[36] = second compound 10 µM, first compound 10 µM
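Also: spheroids exposed to drugs for 7 days.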
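For viability, T/C in this document: 100% = DMSO vehicle control viability.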

**Q.** `COc1cccc2c1C(=O)c1c(O)c3c(c(O)c1C2=O)CC(O)(C(=O)CO)CC3OC1CC(N)C(O)C(C)O1` (stereo unspecified) + Cc1[nH]c2ccc(F)cc2c1-c1nc2c3cccnc3c3ncccc3c2[nH]1 was tested. Which IC50 (second compound 0.0316 µM) did it give?
**A.** 696 nM

**Q.** And the IC50 (second compound 0.1 µM)?
**A.** 511 nM

**Q.** What about the IC50 (second compound 0.316 µM) of the same compound?
**A.** 686 nM

**Q.** What about the IC50 (second compound 1 µM) of the same compound?
**A.** 674 nM

**Q.** What about the IC50 (second compound 3.16 µM) of the same compound?
**A.** 623 nM

**Q.** What about the IC50 (second compound 10 µM) of the same compound?
**A.** 667 nM

**Q.** What about the viability, T/C [1] of the same compound?
**A.** 104%

**Q.** And the viability, T/C [2]?
**A.** 99.2%

**Q.** What about the viability, T/C [3] of the same compound?
**A.** 95.9%

**Q.** What about the viability, T/C [4] of the same compound?
**A.** 28.9%

**Q.** What about the viability, T/C [5] of the same compound?
**A.** 5.65%

**Q.** And the viability, T/C [6]?
**A.** 0.19%

**Q.** What about the viability, T/C [7] of the same compound?
**A.** 117%

**Q.** What about the viability, T/C [8] of the same compound?
**A.** 88.9%

**Q.** And the viability, T/C [9]?
**A.** 70.5%

**Q.** And the viability, T/C [10]?
**A.** 29.5%

**Q.** What about the viability, T/C [11] of the same compound?
**A.** 0.54%

**Q.** What about the viability, T/C [12] of the same compound?
**A.** 0.13%

**Q.** And the viability, T/C [13]?
**A.** 96.1%

**Q.** What about the viability, T/C [14] of the same compound?
**A.** 116%

**Q.** What about the viability, T/C [15] of the same compound?
**A.** 81.4%

**Q.** What about the viability, T/C [16] of the same compound?
**A.** 34.9%

**Q.** And the viability, T/C [17]?
**A.** 0.6%

**Q.** What about the viability, T/C [18] of the same compound?
**A.** 0.26%

**Q.** What about the viability, T/C [19] of the same compound?
**A.** 104%

**Q.** And the viability, T/C [20]?
**A.** 96.3%

**Q.** What about the viability, T/C [21] of the same compound?
**A.** 85.5%

**Q.** And the viability, T/C [22]?
**A.** 32%

**Q.** What about the viability, T/C [23] of the same compound?
**A.** 0.77%

**Q.** What about the viability, T/C [24] of the same compound?
**A.** 0.15%

**Q.** And the viability, T/C [25]?
**A.** 84.7%

**Q.** What about the viability, T/C [26] of the same compound?
**A.** 92.1%

**Q.** And the viability, T/C [27]?
**A.** 75%

**Q.** What about the viability, T/C [28] of the same compound?
**A.** 32.4%

**Q.** What about the viability, T/C [29] of the same compound?
**A.** 1.37%

**Q.** And the viability, T/C [30]?
**A.** 0.86%

**Q.** And the viability, T/C [31]?
**A.** 90.4%

**Q.** And the viability, T/C [32]?
**A.** 98%

**Q.** And the viability, T/C [33]?
**A.** 81.5%

**Q.** And the viability, T/C [34]?
**A.** 32.8%

**Q.** And the viability, T/C [35]?
**A.** 1.17%

**Q.** What about the viability, T/C [36] of the same compound?
**A.** 0.68%

**Q.** Which results are given for `Nc1ccn(C2OC(CO)C(O)C2(F)F)c(=O)n1` (stereo unspecified) + Cc1[nH]c2ccc(F)cc2c1-c1nc2c3cccnc3c3ncccc3c2[nH]1?
**A.** IC50 (second compound 0.0316 µM): < 31.6 nM; IC50 (second compound 0.1 µM): < 31.6 nM; IC50 (second compound 0.316 µM): < 31.6 nM; IC50 (second compound 1 µM): < 31.6 nM; IC50 (second compound 3.16 µM): < 31.6 nM; IC50 (second compound 10 µM): < 31.6 nM; viability, T/C [1]: 21.6%; viability, T/C [2]: 11.7%; viability, T/C [3]: 11.9%; viability, T/C [4]: 10.3%; viability, T/C [5]: 11.4%; viability, T/C [6]: 11.4%; viability, T/C [7]: 22.8%; viability, T/C [8]: 11.5%; viability, T/C [9]: 11.6%; viability, T/C [10]: 9.19%; viability, T/C [11]: 12.4%; viability, T/C [12]: 11.5%; viability, T/C [13]: 23.7%; viability, T/C [14]: 10.1%; viability, T/C [15]: 11.9%; viability, T/C [16]: 10.4%; viability, T/C [17]: 12.4%; viability, T/C [18]: 11.6%; viability, T/C [19]: 18.9%; viability, T/C [20]: 10.6%; viability, T/C [21]: 11.8%; viability, T/C [22]: 10.4%; viability, T/C [23]: 11.7%; viability, T/C [24]: 12.1%; viability, T/C [25]: 23.4%; viability, T/C [26]: 15.5%; viability, T/C [27]: 11.9%; viability, T/C [28]: 11.3%; viability, T/C [29]: 9.87%; viability, T/C [30]: 12.2%; viability, T/C [31]: 20.2%; viability, T/C [32]: 8.63%; viability, T/C [33]: 9.73%; viability, T/C [34]: 9.38%; viability, T/C [35]: 11.6%; viability, T/C [36]: 12.2%

**Q.** `O=c1[nH]cc(F)c(=O)[nH]1` + Cc1[nH]c2ccc(F)cc2c1-c1nc2c3cccnc3c3ncccc3c2[nH]1 was tested. Which IC50 (second compound 0.0316 µM) did it give?
**A.** > 10000 nM

**Q.** And the IC50 (second compound 0.1 µM)?
**A.** > 10000 nM

**Q.** And the IC50 (second compound 0.316 µM)?
**A.** 8530 nM

**Q.** And the IC50 (second compound 1 µM)?
**A.** > 10000 nM

**Q.** And the IC50 (second compound 3.16 µM)?
**A.** 7710 nM

**Q.** And the IC50 (second compound 10 µM)?
**A.** 6670 nM

**Q.** What about the viability, T/C [1] of the same compound?
**A.** 107%

**Q.** And the viability, T/C [2]?
**A.** 99.2%

**Q.** What about the viability, T/C [3] of the same compound?
**A.** 110%

**Q.** And the viability, T/C [4]?
**A.** 106%

**Q.** What about the viability, T/C [5] of the same compound?
**A.** 67.7%

**Q.** What about the viability, T/C [6] of the same compound?
**A.** 51.4%

**Q.** And the viability, T/C [7]?
**A.** 94.7%

**Q.** What about the viability, T/C [8] of the same compound?
**A.** 86.5%

**Q.** What about the viability, T/C [9] of the same compound?
**A.** 110%

**Q.** And the viability, T/C [10]?
**A.** 109%

**Q.** And the viability, T/C [11]?
**A.** 80.9%

**Q.** And the viability, T/C [12]?
**A.** 51.7%

**Q.** What about the viability, T/C [13] of the same compound?
**A.** 84.9%

**Q.** And the viability, T/C [14]?
**A.** 101%

**Q.** And the viability, T/C [15]?
**A.** 106%

**Q.** What about the viability, T/C [16] of the same compound?
**A.** 124%

**Q.** What about the viability, T/C [17] of the same compound?
**A.** 80.7%

**Q.** And the viability, T/C [18]?
**A.** 45.1%

**Q.** What about the viability, T/C [19] of the same compound?
**A.** 98.2%

**Q.** What about the viability, T/C [20] of the same compound?
**A.** 93.7%

**Q.** And the viability, T/C [21]?
**A.** 93.5%

**Q.** And the viability, T/C [22]?
**A.** 87.7%

**Q.** What about the viability, T/C [23] of the same compound?
**A.** 80.7%

**Q.** What about the viability, T/C [24] of the same compound?
**A.** 51.4%

**Q.** What about the viability, T/C [25] of the same compound?
**A.** 97.9%

**Q.** What about the viability, T/C [26] of the same compound?
**A.** 94%

**Q.** What about the viability, T/C [27] of the same compound?
**A.** 110%

**Q.** What about the viability, T/C [28] of the same compound?
**A.** 99.4%

**Q.** And the viability, T/C [29]?
**A.** 68.6%

**Q.** What about the viability, T/C [30] of the same compound?
**A.** 44.6%

**Q.** What about the viability, T/C [31] of the same compound?
**A.** 106%

**Q.** What about the viability, T/C [32] of the same compound?
**A.** 108%

**Q.** What about the viability, T/C [33] of the same compound?
**A.** 110%

**Q.** What about the viability, T/C [34] of the same compound?
**A.** 116%

**Q.** What about the viability, T/C [35] of the same compound?
**A.** 69.3%

**Q.** And the viability, T/C [36]?
**A.** 39.5%
